In patent publication US11608341B2, “Substituted tetrahydropyrazolo[3,4-d]pyrimidines and tetrahydropyrazolo[4,3-d]pyrimidines as C5A receptor modulators” (Idorsia Pharmaceuticals Ltd., priority 2018, dated 2023):

What follows are compounds tested against T1, C5AR1 (Homo sapiens, UniProt P21730) (assay: In vitro assay: antagonism of C5a-induced beta-arrestin recruitment (PathHunter) in CHO-K1 C5AR1 beta-arrestin cell line). Details: antagonistic activity, 1-10 nM C5a agonist, geometric mean where several measurements, read-out: C5aR IC50.
T1 construct: host or cells: CHO-K1
T1 sequence (P21730 1-350): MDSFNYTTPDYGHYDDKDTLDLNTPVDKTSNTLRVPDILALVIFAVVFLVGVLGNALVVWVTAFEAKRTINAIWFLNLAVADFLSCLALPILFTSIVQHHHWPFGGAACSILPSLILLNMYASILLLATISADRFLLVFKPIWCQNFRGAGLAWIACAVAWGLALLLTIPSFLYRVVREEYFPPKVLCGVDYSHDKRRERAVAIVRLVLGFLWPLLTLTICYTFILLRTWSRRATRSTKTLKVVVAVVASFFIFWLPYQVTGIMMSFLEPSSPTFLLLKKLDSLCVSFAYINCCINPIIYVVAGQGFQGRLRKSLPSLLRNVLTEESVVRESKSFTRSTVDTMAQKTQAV
Format: cell-based
Method: 5 μl Antagonist at 6-fold end concentration or DMSO control is added to assay medium and subsequently 5 μl 1-10 nM C5a agonist at 6 fold end concentration. Cells are centrifuged for 1 min at 1000 rpm and incubated for 1.5 hour in at 37° C. Plates are equilibrated at room temperature for several minutes before adding 12 μl/well Detection Reagent (PathHunter Detection Kit, DiscoverX, Cat #93-0001). Plates are centrifuged for 1 min at 1000 rpm and incubated for 45 minutes at RT before being measured on a Fluostar Optima, BMG Labtech. IC50 values are calculated from a serial dilution range of antagonist using inhouse software and given in nmol/l.
The calculated IC50 values may fluctuate depending on the daily cellular assay performance. Fluctuations of this kind are known to those skilled in the art. Average IC50 values from several measurements are given as geometric mean values.

Row | SMILES | IC50
1 | Cc1cccc(C)c1N1CCC(N2Cc3cn(C)nc3N(Cc3ccccc3C(F)(F)F)C2=O)C1 (single isomer, unassigned) [Example 57] | 19 nM
2 | Cc1cccc(C)c1N1CCC(N2Cc3cn(C)nc3N(Cc3ccccc3C(F)(F)F)C2=O)C1 (single isomer, unassigned) [Example 58] | 238 nM
3 | Cc1cccc(F)c1N1CCC(N2Cc3cn(CC(C)F)nc3N(Cc3ccccc3C(F)(F)F)C2=O)CC1 (single isomer, unassigned) [Example 185] | 10 nM
4 | Cc1cccc(F)c1N1CCC(N2Cc3cn(CC(C)F)nc3N(Cc3ccccc3C(F)(F)F)C2=O)CC1 (single isomer, unassigned) [Example 186] | 8 nM
5 | Cc1cccc(F)c1N1CCC(N2Cc3cn(C(C)C(F)F)nc3N(Cc3ccccc3C(F)(F)F)C2=O)CC1 (single isomer, unassigned) [Example 187] | 13 nM
6 | Cc1cccc(F)c1N1CCC(N2Cc3cn(C(C)C(F)F)nc3N(Cc3ccccc3C(F)(F)F)C2=O)CC1 (single isomer, unassigned) [Example 188] | 10 nM
7 | Cc1cccc(F)c1N1CCC(N2Cc3cn(CC4CC4(F)F)nc3N(Cc3ccccc3C(F)(F)F)C2=O)CC1 (single isomer, unassigned) [Example 189] | 10 nM
8 | Cc1cccc(F)c1N1CCC(N2Cc3cn(CC4CC4(F)F)nc3N(Cc3ccccc3C(F)(F)F)C2=O)CC1 (single isomer, unassigned) [Example 190] | 11 nM
9 | Cc1cccc(F)c1N1CCC(N2C(=O)N(Cc3ccccc3C(F)(F)F)c3cn(C)nc3C2C)CC1 (single isomer, unassigned) [Example 202] | 919 nM
10 | Cc1cccc(F)c1N1CCC(N2C(=O)N(Cc3ccccc3C(F)(F)F)c3cn(C)nc3C2C)CC1 (single isomer, unassigned) [Example 203] | 74 nM
11 | Cc1cccc(F)c1N1CCC(N2C(=O)N(Cc3ccccc3C(F)(F)F)c3nn(C)cc3C2C)CC1 (single isomer, unassigned) [Example 220] | 8 nM
12 | Cc1cccc(F)c1N1CCC(N2C(=O)N(Cc3ccccc3C(F)(F)F)c3nn(C)cc3C2C)CC1 (single isomer, unassigned) [Example 221] | 77 nM
13 | Cc1cccc(F)c1N1CCCC(N2Cc3cn(C)nc3N(Cc3ccccc3C(F)(F)F)C2=O)CC1 (single isomer, unassigned) [Example 225] | 34 nM
14 | Cc1cccc(F)c1N1CCCC(N2Cc3cn(C)nc3N(Cc3ccccc3C(F)(F)F)C2=O)CC1 (single isomer, unassigned) [Example 226] | 24 nM
15 | Cc1cccc(F)c1N1CCC(C)(N2Cc3cn(C)nc3N(Cc3ccccc3C(F)(F)F)C2=O)C1 (single isomer, unassigned) [Example 234] | 109 nM
16 | Cc1cccc(F)c1N1CCC(C)(N2Cc3cn(C)nc3N(Cc3ccccc3C(F)(F)F)C2=O)C1 (single isomer, unassigned) [Example 235] | 169 nM
17 | Cc1cccc(F)c1N1CCCC(N2Cc3cn(C)nc3N(Cc3ccccc3C(F)(F)F)C2=O)C1 (single isomer, unassigned) [Example 241] | 112 nM
18 | Cc1cccc(F)c1N1CCCC(N2Cc3cn(C)nc3N(Cc3ccccc3C(F)(F)F)C2=O)C1 (single isomer, unassigned) [Example 242] | 628 nM
19 | Cc1cccc(F)c1N1CCC(N2Cc3cn(C)nc3N(C(C)c3ccccc3C(F)(F)F)C2=O)CC1 (single isomer, unassigned) [Example 246] | 21 nM
20 | Cc1cccc(F)c1N1CCC(N2Cc3cn(C)nc3N(C(C)c3ccccc3C(F)(F)F)C2=O)CC1 (single isomer, unassigned) [Example 247] | 21 nM
21 | Cc1cccc(F)c1N1CCC(N2C(=O)N(Cc3ccccc3C(F)(F)F)c3cn(CC(C)(F)F)nc3C2C)CC1 (single isomer, unassigned) [Example 253] | 16 nM
22 | Cc1cccc(F)c1N1CCC(N2C(=O)N(Cc3ccccc3C(F)(F)F)c3cn(CC(C)(F)F)nc3C2C)CC1 (single isomer, unassigned) [Example 254] | 192 nM
23 | Cc1cccc(F)c1N1CCC(N2C(=O)N(Cc3ccccc3C(F)(F)F)c3cnn(CC(C)(F)F)c3C2C)CC1 (single isomer, unassigned) [Example 255] | 87 nM
24 | Cc1cccc(F)c1N1CCC(N2C(=O)N(Cc3ccccc3C(F)(F)F)c3cnn(CC(C)(F)F)c3C2C)CC1 (single isomer, unassigned) [Example 256] | 570 nM
25 | Cc1cccc(F)c1N1CCC(N2Cc3nn(C)cc3N(C(C)c3ccccc3C(F)(F)F)C2=O)CC1 (single isomer, unassigned) [Example 261] | 580 nM

Row | SMILES | IC50
26 | Cc1cccc(F)c1N1CCC(N2Cc3nn(C)cc3N(C(C)c3ccccc3C(F)(F)F)C2=O)CC1 (single isomer, unassigned) [Example 262] | 472 nM
27 | Cc1cccc(F)c1N1CCC(N2C(=O)N(Cc3ccccc3C(F)(F)F)c3c[nH]nc3C2C)CC1 (single isomer, unassigned) [Example 263] | 21 nM
28 | Cc1cccc(F)c1N1CCC(N2C(=O)N(Cc3ccccc3C(F)(F)F)c3cn(C4CC4)nc3C2C)CC1 (single isomer, unassigned) [Example 265] | 12 nM
29 | Cc1cccc(F)c1N1CCC(N2C(=O)N(Cc3ccccc3C(F)(F)F)c3cn(C4CC4)nc3C2C)CC1 (single isomer, unassigned) [Example 266] | 356 nM
30 | COc1nccc(C)c1N1CCC(N2C(=O)N(Cc3ccccc3C3CC3)c3c[nH]nc3C2C)CC1 (single isomer, unassigned) [Example 274] | 37 nM
31 | Cc1cccc(F)c1N1CCC(N2C(=O)N(Cc3ccccc3C3CC3)c3c[nH]nc3C2C)CC1 (single isomer, unassigned) [Example 275] | 20 nM
32 | Cc1cccc(F)c1N1CCC(N2C(=O)N(Cc3ccccc3C3CC3)c3cn(CC(C)(F)F)nc3C2C)CC1 (single isomer, unassigned) [Example 276] | 491 nM
33 | Cc1cccc(F)c1N1CCC(N2C(=O)N(Cc3ccccc3C3CC3)c3cn(CC(C)(F)F)nc3C2C)CC1 (single isomer, unassigned) [Example 277] | 56 nM
34 | Cc1cccc(F)c1N1CCC(N2C(=O)N(Cc3ccccc3C3CC3)c3cn(C4CC4)nc3C2C)CC1 (single isomer, unassigned) [Example 278] | 492 nM
35 | Cc1cccc(F)c1N1CCC(N2C(=O)N(Cc3ccccc3C3CC3)c3cn(C4CC4)nc3C2C)CC1 (single isomer, unassigned) [Example 279] | 28 nM
36 | COc1nccc(C)c1N1CCC(N2Cc3cn(C)nc3N(C(C)c3ccccc3C(F)(F)F)C2=O)CC1 (single isomer, unassigned) [Example 286] | 33 nM
37 | COc1nccc(C)c1N1CCC(N2Cc3cn(C)nc3N(C(C)c3ccccc3C(F)(F)F)C2=O)CC1 (single isomer, unassigned) [Example 287] | 37 nM
38 | CC(c1ccccc1C(F)(F)F)N1C(=O)N(C2CCN(c3c(F)cccc3C#N)CC2)Cc2cn(C)nc21 (single isomer, unassigned) [Example 288] | 75 nM
39 | CC(c1ccccc1C(F)(F)F)N1C(=O)N(C2CCN(c3c(F)cccc3C#N)CC2)Cc2cn(C)nc21 (single isomer, unassigned) [Example 289] | 55 nM
40 | CC(c1ccccc1C(F)(F)F)N1C(=O)N(C2CCN(c3c(F)cccc3F)CC2)Cc2cn(C)nc21 (single isomer, unassigned) [Example 290] | 351 nM
41 | CC(c1ccccc1C(F)(F)F)N1C(=O)N(C2CCN(c3c(F)cccc3F)CC2)Cc2cn(C)nc21 (single isomer, unassigned) [Example 291] | 116 nM
42 | COc1nccc(C)c1N1CCC(N2C(=O)N(Cc3ccccc3C3CC3)c3cn(C4CC4)nc3C2C)CC1 (single isomer, unassigned) [Example 292] | 515 nM
43 | COc1nccc(C)c1N1CCC(N2C(=O)N(Cc3ccccc3C3CC3)c3cn(C4CC4)nc3C2C)CC1 (single isomer, unassigned) [Example 293] | 20 nM
44 | COc1nccc(C)c1N1CCC(N2C(=O)N(Cc3ccccc3C(F)(F)F)c3c[nH]nc3C2C)CC1 (single isomer, unassigned) [Example 295] | 25 nM
45 | COc1nccc(C)c1N1CCC(N2C(=O)N(Cc3ccccc3C(F)(F)F)c3cn(C4CC4)nc3C2C)CC1 (single isomer, unassigned) [Example 296] | 15 nM
46 | COc1nccc(C)c1N1CCC(N2C(=O)N(Cc3ccccc3C(F)(F)F)c3cn(C4CC4)nc3C2C)CC1 (single isomer, unassigned) [Example 297] | 326 nM
47 | COc1nccc(C)c1N1CCC(N2C(=O)N(Cc3ccccc3C(F)(F)F)c3cn(C)nc3C2C)CC1 (single isomer, unassigned) [Example 298] | 29 nM
48 | Cc1cccc(F)c1N1CCC(N2C(=O)N(Cc3ccccc3C(F)(F)F)c3nn(CC(C)(F)F)cc3C2C)CC1 (single isomer, unassigned) [Example 305] | 16 nM
49 | Cc1cccc(F)c1N1CCC(N2C(=O)N(Cc3ccccc3C(F)(F)F)c3nn(CC(C)(F)F)cc3C2C)CC1 (single isomer, unassigned) [Example 306] | 285 nM
